Tests used:
[1] = system: Raf-1(truncated); assay: Raf-1 inhibitor screening by chemoluminescence method; assay type: biochemical; conditions: Final concentration 1 x 1.0*10^−5 mol/ml
Text: 1. Inhibitory activity of the compound of the present invention on raf kinase
Raf-1 inhibitor screening by chemoluminescence method
Westernblot electrophoresis apparatus Rotaryshaker
Raf-1(truncated), Magnesium/ATP Cocktail, MEK1 unactive

[2] = system: human lung cancer cell strain A549; assay: MTT assay, inhibition of growth of human lung cancer cell strain A549; assay type: cell-based
In short: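 A549 cells grown in F12 with 10% FBS; growth read by MTT, inhibition rate from blank-corrected OD of drug wells versus control wells.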

[3] = system: human high-metastic lung cancer cell 95D; assay: Inhibition of human high-metastic lung cancer cell 95D migration (Boyden Chamber Transwell); assay type: cell-based; conditions: Final concentration 1 x 1.0*10^(−5) mol/L
In short: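 Boyden Transwell migration (8 μm pores) of 95D cells, RPMI-1640 with 10% FBS versus serum-free medium; inhibition rate calculated.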

[4] = system: lung cancer cell A549; assay: Effects on the adhesive ability of lung cancer cell A549; assay type: cell-based, human; conditions: Final concentration 1 x 1.0*10^(−5) mol/L
In short: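 A549 cells in 1640 medium with 10% FBS tested for adhesion to gelatin versus poly-lysine (PLL), with CCK8 used as read-out. Inhibition rate derived from the gelatin/PLL adhesion OD ratio of dosed cells relative to the undosed cell group.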

[5] = system: human umbilical vein endothelial cell HUVEC; assay: Growth of human umbilical vein endothelial cell HUVEC by CCK8 method; assay type: cell-based; conditions: Final concentration 1 x 1.0*10^(−5) mol/L
In short: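 HUVEC cells were grown in 1640 medium with 10% FBS, and growth was measured by the CCK8 method. OD values of drug and control wells were corrected by subtracting the blank-well OD.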

[6] = system: human umbilical vein endothelial cell HUVEC; assay: Lumen formation ability of HUVEC (Matrigel method); assay type: cell-based; conditions: Final concentration 1 x 1.0*10^(−5) mol/L
In short: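 HUVEC at passage 3–5, cultured in M199 at 37° C under 5% CO2, were plated on Matrigel with compound. Spontaneous lumen formation was scored as an inhibition rate.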

[7] = system: human lung cancer A549 transplantation tumor; assay type: in vivo; conditions: BALB/cA nude mice; 60 mg/kg, 6 times every week for 3 weeks; Sorafenib oral 60 mg/kg
In short: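 Female BALB/cA nude mice, 35-40 days old, bearing A549 human lung cancer transplants; 6 per treatment group, 12 saline controls. Compound given at 60 mg/kg, 6 times weekly for 3 weeks, then observed one week.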

[8] = system: human liver cancer cell bel-7402 transplantation tumor; assay type: in vivo; conditions: BALB/cA nude mice; 60 mg/kg, 6 times every week for 3 weeks; Sorafenib oral 60 mg/kg
In short: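 Female BALB/cA nude mice (35–40 days, 18–22 g) bearing Bel-7402 xenografts; 6 mice per treated group, 12 in saline controls. Compound dosed at 60 mg/kg, 6 times weekly for 3 weeks, followed by one week of observation; tumor inhibition rate scored against controls.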

[9] = system: renal carcinoma cell line GCR-1 transplanted tumor; assay type: in vivo, BALB/cA nude mice; conditions: BALB/cA nude mice; 60 mg/kg, 6 times every week for 3 weeks; Sorafenib oral 60 mg/kg
In short: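 Female BALB/cA nude mice (18–22 g) bearing GCR-1 renal carcinoma xenografts, 6 per treated group, 12 saline controls. Drug given at 60 mg/kg, 6 times weekly for 3 weeks, then one week of observation; tumor inhibition rate reported.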

[10] = system: mice S180 sarcoma; assay: Experimental therapeutic action on S180 sarcoma mice; conditions: mice S180 sarcoma, 60 mg/kg orally for 9 days
Protocol: Experimental therapeutic action of the compound in the present invention on S180 sarcoma mice
18-25 g female ICR mice and well grown 7-11 day old mice sarcoma S180 tumor seeds were selected, and the seeds were inoculated into the subcutaneous at the right axillary. After inoculated 24 hours, these mice were randomly divided into cages and orally administrated 60 mg/kg for 9 days. On 10 day, the animals were killed and weighed, and the tumor weights were weighed to calculate average tumor weight in each group, followed by calculating the tumor inhibition rate according to the following formula and T test.

[11] = system: Human colon cancer HT-29 transplantable tumor; assay: Human colon cancer HT-29 transplantable tumor in nude mice; conditions: HT-29 in nude mice, 60 mg/kg ig 9 times
Protocol: Experimental therapeutic action of the compound in the present invention on Human colon cancer HT-29 transplantable tumor in nude mice.
Take eugenic tumor tissues and cut into about 1.5 mm^3, and then incoculate subcutaneously at the right armpit of nude mice under the sterile conditions. The diameter of the transplantable tumor in nude mice was determined with a vernier caliper, and the animals were divided into groups after the tumors were grown to 100-300 mm^3. Using the method of measuring the tumor diameter, dynamically observe the antitumor effects of tested materials. The diameter of the tumor was determined three times every week and the mouse weight was weighed at the same time. […] The solvent was intragastrically administrated as the control for continuous 9 times. Equal amount of control was administrated in the negative control group.
Tumor volume (TV) is calculated as: TV=½×a×b^2, wherein a and b respectively represent length and width.
Relative tumor volume (RTV) is calculated as: RTV=TVt/TV0, wherein TV0 is the tumor volume when administrated according to different cages and TVt is the tumor volume measured each time.
Relative tumor reproduction rate T/C (%) is calculated as follows:
TRTV: RTV in the treatment group; CRTV: RTV in the negative control group.
The test results used relative tumor reproduction rate T/C (%) as evaluating indicator of anti-tumor activity.

Compound	Inhibition rate % on raf kinase [1]	Inhibition rate, growth of human lung cancer cell A549 [2]	Inhibition rate, 95D cell strain migration [3]	Inhibition rate, adhesion ability of human lung cancer cell A549 [4]	Inhibition rate, growth of HUVEC cell [5]	Inhibition rate, lumen formation ability of HUVEC [6]	Relative tumor reproduction rate T/C (%) on human lung cancer A549 transplantation tumor in nude mice [7]	Relative tumor reproduction rate T/C (%) on human liver cancer cell bel-7402 transplantation tumor model in nude mice [8]	Relative tumor reproduction rate T/C (%) on human renal carcinoma GCR-1 cell transplanted tumor model in nude mice [9]	Tumor growth inhibition rate (%) [10]	Relative tumor reproduction rate T/C (%) [11]
Nc1ccc2c(Oc3ccc(NC(=O)Nc4ccc(Br)c(C(F)(F)F)c4)cc3)cncc2c1 [Compound 27, N-(4-bromo-3-(trifluoromethyl)phenyl)-N′-(4-(4-(7-amino-isoquinolyl)oxy)phenyl)urea]	8.8%	64.71%	59.77%	94.77%	24.73%	89.75%	36.3%	29.2%	26.2%	55.1%	80.3%
Cc1cc(Oc2ccc(NC(=O)Nc3ccc(Cl)c(C(F)(F)F)c3)cc2)c[nH]1 [Compound 28, N-(4-chloro-3-(trifluoromethyl)phenyl)-N′-(4-(4-(2-methyl-pyrryl)oxy)phenyl)urea]	33.5%	88.52%	70.53%	90.53%	20.55%	89.52%	13.6%	17.5%	11.4%	11.5%	39.1%
Cc1cc(Oc2ccc(NC(=O)Nc3ccc(Br)c(C(F)(F)F)c3)cc2)c[nH]1 [Compound 30, N-(4-bromo-3-(trifluoromethyl)phenyl)-N′-(4-(4-(2-methyl-pyrryl)oxy)phenyl)urea]	16.8%	85.47%	69.62%	92.44%	25.46%	90.66%	13.1%	16.1%	10.2%	55.2%	79.5%
CCc1cc(NC(=O)Nc2ccc(Oc3ccnc4cc(F)c(OC)cc34)cc2)ccc1Cl [Compound 31, N-(4-chloro-3-ethylphenyl)-N′-(4-(4-(6-methoxyl-7-fluoro-quinolinyl)oxy)phenyl)urea]	89.4%	46.78%	76.18%	66.77%	26.70%	66.77%	38.7%	33.4%	31.4%	50.3%	50.3%
CCc1ccc(NC(=O)Nc2ccc(Oc3ccnc4cc(F)c(OC)cc34)cc2)cc1C(F)(F)F [Compound 32, N-(4-ethyl-3-(trifluoromethyl)phenyl)-N′-(4-(4-(6-methoxyl-7-fluoro-quinolinyl)oxy)phenyl)urea]	90.5%	45.76%	66.92%	64.73%	24.77%	54.74%	35.3%	31.4%	32.5%	49.8%	46.2%
CCc1cc(NC(=O)Nc2ccc(Oc3ccnc4cc(F)c(C)cc34)cc2)ccc1Cl [Compound 33, N-(4-chloro-3-ethylphenyl)-N′-(4-(4-(6-methyl-7-fluoro-quinolinyl)oxy)phenyl)urea]	92.3%	57.53%	77.52%	77.59%	17.50%	67.51%	37.5%	32.7%	33.4%	55.3%	39.9%
CCc1ccc(NC(=O)Nc2ccc(Oc3ccnc4cc(F)c(C)cc34)cc2)cc1C(F)(F)F [Compound 34, N-(4-ethyl-3-(trifluoromethyl)phenyl)-N′-(4-(4-(6-methyl-7-fluoro-quinolinyl)oxy)phenyl)urea]	96.2%	59.52%	63.65%	76.54%	19.52%	66.52%	22.3%	31.5%	36.1%	52.6%	45.9%
CCNC(=O)c1cc(Oc2ccc(NC(=O)Nc3ccc(Cl)c(OC)c3)c(C)c2)c2ccc([N+](=O)[O-])cc2n1 [Compound 35, N-(4-chloro-3-methoxyphenyl)-N′-(2-methyl-4-(2-(N-ethylcarbamyl)-4-(7-nitryl-quinolinyl)oxy)phenyl)urea]	45.3%	55.74%	68.47%	75.72%	5.74%	65.70%	23.6%	34.5%	32.3%	55.8%	51.2%
CCNC(=O)c1cc(Oc2ccc(NC(=O)Nc3ccc(Cl)c(OC)c3)c(OC)c2)c2ccc([N+](=O)[O-])cc2n1 [Compound 36, N-(4-chloro-3-methoxyphenyl)-N′-(2-methoxyl-4-(2-(N-ethylcarbamyl)-4-(7-nitryl-quinolinyl)oxy)phenyl)urea]	81.2%	72.45%	84.59%	74.50%	12.45%	64.50%	37.9%	37.9%	25.9%	55.1%	41.5%

Source: patent US8957087B2, “Heterocyclic substituted acardite derivate and application thereof” (Jiangsu Provincial Institute of Materia Medica Co., Ltd., priority 2009, dated 2015)
